Assay results taken from the NIST ThermoML archive (doi:10.1021/je800579j).

Test: xn = mol fraction of the nth substance listed
Conditions: Liquid, Pycnometric method

Cc1ccccc1C [1,2-dimethylbenzene] + C1COCCO1
mass density [kg/m3]
Conditions | 288.15 K | 293.15 K | 298.15 K | 303.15 K | 308.15 K | 313.15 K | 318.15 K
x2 = 0 | 884.09 | 879.83 | 875.57 | 871.31 | 867.05 | 862.79 | 858.53
x2 = 0.0672 | 891.2 | 886.85 | 882.5 | 878.15 | 873.8 | 869.45 | 865.1
x2 = 0.1391 | 899.18 | 894.73 | 890.29 | 885.85 | 881.41 | 876.97 | 872.53
x2 = 0.2103 | 907.48 | 902.95 | 898.42 | 893.89 | 889.36 | 884.83 | 880.3
x2 = 0.2853 | 916.69 | 912.06 | 907.43 | 902.8 | 898.17 | 893.55 | 888.93
x2 = 0.3543 | 925.67 | 920.95 | 916.23 | 911.51 | 906.79 | 902.08 | 897.37
x2 = 0.4293 | 936 | 931.18 | 926.36 | 921.55 | 916.74 | 911.93 | 907.12
x2 = 0.5092 | 947.69 | 942.77 | 937.85 | 932.93 | 928.02 | 923.11 | 918.2
x2 = 0.581 | 958.89 | 953.86 | 948.83 | 943.81 | 938.79 | 933.77 | 928.75
x2 = 0.6518 | 970.57 | 965.44 | 960.31 | 955.19 | 950.07 | 944.95 | 939.83
x2 = 0.7248 | 983.38 | 978.14 | 972.9 | 967.66 | 962.43 | 957.2 | 951.97
x2 = 0.7888 | 995.25 | 989.91 | 984.57 | 979.23 | 973.9 | 968.57 | 963.24
x2 = 0.8595 | 1009.11 | 1003.66 | 998.21 | 992.77 | 987.33 | 981.89 | 976.45
x2 = 0.9298 | 1023.75 | 1018.19 | 1012.63 | 1007.08 | 1001.53 | 995.99 | 990.45

Cc1cc(C)cc(C)c1 [1,3,5-trimethylbenzene] + C1COCCO1
mass density [kg/m3]
Conditions | 288.15 K | 293.15 K | 298.15 K | 303.15 K | 308.15 K | 313.15 K | 318.15 K
x2 = 0 | 869.28 | 865.37 | 861.45 | 857.54 | 853.63 | 849.71 | 845.8
x2 = 0.0696 | 876.28 | 872.24 | 868.2 | 864.16 | 860.13 | 856.1 | 852.07
x2 = 0.1408 | 883.83 | 879.67 | 875.52 | 871.37 | 867.22 | 863.07 | 858.92
x2 = 0.2098 | 891.62 | 887.36 | 883.1 | 878.84 | 874.59 | 870.34 | 866.09
x2 = 0.28 | 900.04 | 895.68 | 891.32 | 886.96 | 882.6 | 878.25 | 873.9
x2 = 0.3558 | 909.87 | 905.4 | 900.93 | 896.46 | 892 | 887.54 | 883.08
x2 = 0.4276 | 919.97 | 915.4 | 910.83 | 906.26 | 901.7 | 897.14 | 892.58
x2 = 0.5066 | 932.03 | 927.35 | 922.67 | 917.99 | 913.32 | 908.65 | 903.98
x2 = 0.5801 | 944.34 | 939.54 | 934.74 | 929.94 | 925.14 | 920.34 | 915.54
x2 = 0.6548 | 957.96 | 953.01 | 948.06 | 943.12 | 938.18 | 933.25 | 928.32
x2 = 0.7227 | 971.44 | 966.36 | 961.28 | 956.21 | 951.14 | 946.07 | 941
x2 = 0.7936 | 986.75 | 981.51 | 976.27 | 971.04 | 965.81 | 960.58 | 955.35
x2 = 0.8663 | 1003.78 | 998.39 | 993 | 987.61 | 982.23 | 976.85 | 971.47
x2 = 0.9319 | 1020.49 | 1014.96 | 1009.43 | 1003.91 | 998.39 | 992.87 | 987.35

Cc1cccc(C)c1 [1,3-dimethylbenzene] + C1COCCO1
mass density [kg/m3]
Conditions | 288.15 K | 293.15 K | 298.15 K | 303.15 K | 308.15 K | 313.15 K | 318.15 K
x2 = 0 | 868.59 | 864.31 | 860.02 | 855.74 | 851.45 | 847.17 | 842.88
x2 = 0.0938 | 879.61 | 875.2 | 870.79 | 866.38 | 861.97 | 857.56 | 853.16
x2 = 0.1532 | 886.95 | 882.46 | 877.97 | 873.48 | 868.99 | 864.5 | 860.01
x2 = 0.2046 | 893.54 | 888.98 | 884.42 | 879.87 | 875.32 | 870.77 | 866.22
x2 = 0.2698 | 902.26 | 897.62 | 892.98 | 888.35 | 883.72 | 879.09 | 874.47
x2 = 0.3374 | 911.76 | 907.05 | 902.34 | 897.63 | 892.92 | 888.21 | 883.5
x2 = 0.4002 | 921.05 | 916.26 | 911.47 | 906.68 | 901.9 | 897.12 | 892.34
x2 = 0.4714 | 932.18 | 927.3 | 922.42 | 917.55 | 912.68 | 907.81 | 902.94
x2 = 0.5487 | 945 | 940.02 | 935.04 | 930.06 | 925.08 | 920.1 | 915.12
x2 = 0.63 | 959.44 | 954.33 | 949.22 | 944.11 | 939.01 | 933.91 | 928.81
x2 = 0.7182 | 976.23 | 970.98 | 965.73 | 960.49 | 955.25 | 950.01 | 944.77
x2 = 0.8035 | 993.74 | 988.36 | 982.98 | 977.6 | 972.23 | 966.86 | 961.5
x2 = 0.8708 | 1008.47 | 1002.99 | 997.51 | 992.03 | 986.56 | 981.09 | 975.62
x2 = 0.9324 | 1022.71 | 1017.15 | 1011.59 | 1006.03 | 1000.48 | 994.93 | 989.38

Cc1ccc(C)cc1 [1,4-dimethylbenzene] + C1COCCO1
mass density [kg/m3]
Conditions | 288.15 K | 293.15 K | 298.15 K | 303.15 K | 308.15 K | 313.15 K | 318.15 K
x2 = 0 | 865.52 | 861.17 | 856.82 | 852.47 | 848.12 | 843.77 | 839.42
x2 = 0.0716 | 874.09 | 869.64 | 865.2 | 860.76 | 856.32 | 851.88 | 847.44
x2 = 0.1445 | 883.22 | 878.69 | 874.16 | 869.64 | 865.12 | 860.6 | 856.08
x2 = 0.2132 | 892.23 | 887.63 | 883.03 | 878.43 | 873.83 | 869.23 | 864.63
x2 = 0.2871 | 902.41 | 897.73 | 893.05 | 888.37 | 883.69 | 879.02 | 874.35
x2 = 0.3582 | 912.76 | 908 | 903.24 | 898.49 | 893.74 | 888.99 | 884.24
x2 = 0.4358 | 924.73 | 919.88 | 915.03 | 910.19 | 905.35 | 900.51 | 895.67
x2 = 0.5042 | 935.9 | 930.97 | 926.04 | 921.12 | 916.2 | 911.28 | 906.36
x2 = 0.5846 | 949.87 | 944.84 | 939.81 | 934.78 | 929.76 | 924.74 | 919.72
x2 = 0.6543 | 962.76 | 957.63 | 952.5 | 947.38 | 942.26 | 937.14 | 932.02
x2 = 0.7249 | 976.61 | 971.38 | 966.15 | 960.92 | 955.69 | 950.46 | 945.23
x2 = 0.7923 | 990.62 | 985.27 | 979.92 | 974.58 | 969.25 | 963.92 | 958.59
x2 = 0.8623 | 1006.05 | 1000.6 | 995.15 | 989.7 | 984.25 | 978.8 | 973.35
x2 = 0.9311 | 1022.14 | 1016.58 | 1011.03 | 1005.48 | 999.93 | 994.38 | 988.83
